Calls of active or inactive are those of the source.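 Rule for the calls: active = lipid-stain IC50 at or below a set limit, with nuclear-stain toxicity IC50 at least five times higher; inactive = the rest.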
Experiments:
[1] = system: DAPI; assay: TAG lipid buildup inhibition with viability readout – cell-based, panel, Nile Red and DAPI fluorescence, H9c2, dose response (AID 651630); details: H9c2 cells, DAPI nuclear fluorescence (cytotoxicity counter-readout), oleic acid;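 note: cells exposed to compound overnight before fixation and staining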
[2] = system: TAG; assay: as above; details: H9c2 cells, Nile Red TAG fluorescence, oleic acid

| SMILES | IC50 cytotoxicity (DAPI nuclear signal decrease) ([1]; run 1) | IC50 cytotoxicity (DAPI nuclear signal decrease) ([1]; run 2) | IC50 ([2]; mean of runs) | IC50 ([2]; run 1) | IC50 ([2]; run 2) | IC50 cytotoxicity (DAPI nuclear signal decrease) ([1]; mean of runs) |
| --- | --- | --- | --- | --- | --- | --- |
| C=CCC[C@H](Cc1ccc(F)cc1)C(=O)OC[C@@H](NC(=O)[C@@H](CC=C)CC(=O)N(CCO)Cc1ccccc1)C(C)(C)C | > 25 µM | > 25 µM | 2.94 µM | 2.57 µM | 3.32 µM |  |
| CCOc1cc(C(=O)N/N=C/c2cn(-c3ccccc3)nc2-c2cc3ccccc3o2)cc(OCC)c1OCC | > 25 µM | > 25 µM | 10.2 µM | 9.28 µM | 11.2 µM | > 25 µM (inactive) |
| CC(=O)c1cccc(-c2ccc(CN3C(CC(C)C)C(=O)N(Cc4cn(CC5CCCCC5)nn4)CCS3(=O)=O)cc2)c1 (stereo not drawn) | > 25 µM | > 25 µM |  | > 25 µM | 18.1 µM | > 25 µM (inactive) |
| Cc1ccc(NC(=O)c2nc[nH]c2C(=O)NCCCCNC(=O)c2[nH]cnc2C(=O)Nc2ccc(C)cc2)cc1 | > 25 µM | > 25 µM | 5.46 µM | 6.27 µM | 4.66 µM | > 25 µM (inactive) |
| CCOC(=O)c1[nH]c2ccc(OCC)cc2c1NC(=O)CN1CCN(c2ccccc2)CC1 | > 25 µM | > 25 µM | 22.7 µM (inactive) | 20.4 µM | 25 µM | > 25 µM (inactive) |
| COc1cccc(C2c3c(C)nn(-c4ccc([N+](=O)[O-])cc4)c3N=C3C(=O)Nc4ccccc4N32)c1 (stereo not drawn) | > 25 µM | > 25 µM | 7.79 µM | 7.32 µM | 8.26 µM | > 25 µM (inactive) |
| c1ccc(-c2nc(SCc3nc4ccccc4[nH]3)c3oc4ccccc4c3n2)cc1 | > 25 µM | > 25 µM | 10.5 µM | 10 µM | 11 µM | > 25 µM (inactive) |
| CC(=O)OC12COC1CC(O)C1(C)C(=O)C(O)C3=C(C)C(O)CC(O)(C(OC(=O)c4ccccc4)C21)C3(C)C (stereo not drawn) | > 25 µM | > 25 µM | 9.4 µM | 9.73 µM | 9.07 µM | > 25 µM (inactive) |
| CN(C)C(=O)c1cccc(-c2cnc3c(NC=O)cc(-c4ccc(C(=O)N5CCOCC5)cc4)cn23)c1 | > 25 µM | > 25 µM | 8.71 µM | 3.47 µM | 13.9 µM | > 25 µM (inactive) |
| COc1cc2c(c(OC)c1OC)-c1ccc(O)cc1C(NC(C)=O)CC2 (stereo not drawn) | > 25 µM | > 25 µM | > 25 µM (inactive) | > 25 µM | > 25 µM | > 25 µM (inactive) |
| Cc1cc(C)c2nc(-c3ccncc3)cc(C(=O)N3CCN(Cc4ccccc4Cl)CC3)c2c1 | > 25 µM | > 25 µM | 12.1 µM | 14.2 µM | 10.1 µM | > 25 µM (inactive) |
| COc1ccc(C2=CC(c3ccc4c(c3)OCO4)c3c(c4ccccc4oc3=O)O2)cc1OC (stereo not drawn) | > 25 µM | > 25 µM | 18.8 µM (inactive) | 20.6 µM | 17 µM | > 25 µM (inactive) |
| CC(C)N1CSC(=S)N(Cc2ccccc2)C1 | > 25 µM | > 25 µM | > 25 µM (inactive) | > 25 µM | > 25 µM | > 25 µM (inactive) |
| CC1CC2(C)Oc3ccccc3CC2C(C)C1CNCCCN(C)C (stereo not drawn) | 18.4 µM | 19.5 µM | > 25 µM (inactive) | > 25 µM | > 25 µM | 18.9 µM (inactive) |
| COc1cc(C#Cc2c(-c3cncn3C)n(C)c3ccc(-c4ccc5cc[nH]c5c4)cc23)cc(OC)c1 | > 25 µM | > 25 µM | 11.7 µM | 12.1 µM | 11.3 µM | > 25 µM (inactive) |
| Clc1ccc(-c2csc(NNC3=NCCCCC3)n2)cc1 | 23.9 µM | > 25 µM |  | < 0.78 µM | 0.875 µM |  |
| CCO[C@@H]1OC(C(=O)N2CCN(Cc3ccccc3)CC2)=C[C@H](c2ccc(C(F)(F)F)cc2)[C@H]1CCCO | > 25 µM | > 25 µM | 11.4 µM | 11.2 µM | 11.6 µM | > 25 µM (inactive) |

Source: PubChem BioAssay AID651630 (Sanford-Burnham Center for Chemical Genomics, 2012)
